Results from ChEMBL document CHEMBL1909294, “Translating clinical findings into knowledge in drug safety evaluation--drug induced liver injury prediction system (DILIps)” (PLoS Comput Biol, 2011).

What was measured:
[1] = system: Hepatotoxicity;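 on HepSE Combined Scores: combined hepatic side effect score as listed in the training data of the Drug Induced Liver Injury Prediction System (DILIps)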;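 on HepSE cholelithiasis: hepatic side effect score for cholelithiasis, drawn from the DILIps training data for predicting drug-induced liver injury; call rule not given here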;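 on HepSE cirrhosis: cirrhosis hepatic side effect score taken from the DILIps (drug-induced liver injury prediction) training set; call rule not given here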;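 on HepSE elevated liver function tests: hepatic side effect score for raised liver function tests, as recorded in the DILIps training set used for predicting drug-induced liver injury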;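 on HepSE hepatitis: Hepatitis-related hepatic side effect score taken from the training data of DILIps, a prediction system for drug-induced liver injury; call rule not given here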; on HepSE liver disease: call rule not given here;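 on HepSE liver function tests abnormal: hepatic side effect score taken from the DILIps (drug-induced liver injury prediction system) training data, here covering abnormal liver function test findings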
[2] = system: Hepatotoxicity; remark: listed apart in the source;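 on HepSE cholelithiasis: hepatic side effect score for cholelithiasis, drawn from the DILIps training data for predicting drug-induced liver injury; call rule not given here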;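 on HepSE cirrhosis: cirrhosis hepatic side effect score taken from the DILIps (drug-induced liver injury prediction) training set; call rule not given here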;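 on HepSE elevated liver function tests: hepatic side effect score for raised liver function tests, as recorded in the DILIps training set used for predicting drug-induced liver injury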;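 on HepSE hepatitis: Hepatitis-related hepatic side effect score taken from the training data of DILIps, a prediction system for drug-induced liver injury; call rule not given here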; on HepSE liver disease: call rule not given here;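 on HepSE liver function tests abnormal: hepatic side effect score taken from the DILIps (drug-induced liver injury prediction system) training data, here covering abnormal liver function test findings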
[3] = system: Hepatotoxicity; remark: listed apart in the source;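 on HepSE cholelithiasis: hepatic side effect score for cholelithiasis, drawn from the DILIps training data for predicting drug-induced liver injury; call rule not given here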;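 on HepSE cirrhosis: cirrhosis hepatic side effect score taken from the DILIps (drug-induced liver injury prediction) training set; call rule not given here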;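 on HepSE elevated liver function tests: hepatic side effect score for raised liver function tests, as recorded in the DILIps training set used for predicting drug-induced liver injury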;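 on HepSE hepatitis: Hepatitis-related hepatic side effect score taken from the training data of DILIps, a prediction system for drug-induced liver injury; call rule not given here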; on HepSE liver disease: call rule not given here;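 on HepSE liver function tests abnormal: hepatic side effect score taken from the DILIps (drug-induced liver injury prediction system) training data, here covering abnormal liver function test findings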
[4] = system: Hepatotoxicity; remark: listed apart in the source;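 on HepSE cholelithiasis: hepatic side effect score for cholelithiasis, drawn from the DILIps training data for predicting drug-induced liver injury; call rule not given here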;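 on HepSE cirrhosis: cirrhosis hepatic side effect score taken from the DILIps (drug-induced liver injury prediction) training set; call rule not given here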;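 on HepSE elevated liver function tests: hepatic side effect score for raised liver function tests, as recorded in the DILIps training set used for predicting drug-induced liver injury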;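 on HepSE hepatitis: Hepatitis-related hepatic side effect score taken from the training data of DILIps, a prediction system for drug-induced liver injury; call rule not given here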; on HepSE liver disease: call rule not given here;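 on HepSE liver function tests abnormal: hepatic side effect score taken from the DILIps (drug-induced liver injury prediction system) training data, here covering abnormal liver function test findings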
[5] = system: Hepatotoxicity; remark: listed apart in the source; on HepSE liver disease: call rule not given here
[6] = system: Hepatotoxicity; remark: listed apart in the source; on HepSE liver disease: call rule not given here
[7] = system: Hepatotoxicity; remark: listed apart in the source
[8] = system: Hepatotoxicity; remark: listed apart in the source
[9] = system: Hepatotoxicity; remark: listed apart in the source
[10] = system: Hepatotoxicity; remark: listed apart in the source
[11] = system: Hepatotoxicity; remark: listed apart in the source
[12] = system: Hepatotoxicity; remark: listed apart in the source
[13] = system: Hepatotoxicity; remark: listed apart in the source
[14] = system: Hepatotoxicity; remark: listed apart in the source

Compound | HepSE_hepatitis [1] | HepSE_liver function tests abnormal [2] | HepSE_cholelithiasis [3] | HepSE_elevated liver function tests [4] | HepSE_liver disease [5] | HepSE_liver fatty [6] | HepSE_cirrhosis [7] | HepSE_Combined Scores [8] | HepSE_bilirubinemia [9] | HepSE_jaundice [10] | HepSE_cholecystitis [11] | HepSE_hepatic necrosis [12] | HepSE_hepatomegaly [13] | HepSE_hepatic failure [14] | further results
Cc1cccc(Nc2ccccc2C(=O)O)c1C [MEFENAMIC ACID] | – | – | – | – | – | – | – | – | – | – | – | – | – | – | HepSE_hepatitis ([1]; Liver): 1; HepSE_liver function tests abnormal ([2]; Liver): 0; HepSE_cholelithiasis ([3]; Liver): 0; HepSE_elevated liver function tests ([4]; Liver): 0; HepSE_liver disease ([5]; Liver): 0; HepSE_liver fatty ([6]; Liver): 0; HepSE_cirrhosis ([7]; Liver): 0; HepSE_Combined Scores ([8]; Liver): 3; HepSE_bilirubinemia ([9]; Liver): 0; HepSE_jaundice ([10]; Liver): 1; HepSE_cholecystitis ([11]; Liver): 0; HepSE_hepatic necrosis ([12]; Liver): 0; HepSE_hepatomegaly ([13]; Liver): 0; HepSE_hepatic failure ([14]; Liver): 1
CCN(CC)C(C)C(=O)c1ccccc1 (configuration not stated) [DIETHYLPROPION] | 0 | 0 | 0 | 0 | 0 | 0 | 0 | 0 | 0 | 0 | 0 | 0 | 0 | 0 | –
CNC1(c2ccccc2Cl)CCCCC1=O (configuration not stated) [KETAMINE] | 0 | 0 | 0 | 0 | 0 | 0 | 0 | 0 | 0 | 0 | 0 | 0 | 0 | 0 | –
Cc1ccsc1C(=CCCN1CCC[C@@H](C(=O)O)C1)c1sccc1C [TIAGABINE] | 0 | 1 | 1 | 0 | 0 | 0 | 0 | 4 | 0 | 0 | 1 | 0 | 1 | 0 | –
C=C[C@H]1C[N@@]2CC[C@H]1C[C@@H]2[C@@H](O)c1ccnc2ccc(OC)cc12 [QUINIDINE] | 1 | 1 | 0 | 0 | 0 | 0 | 0 | 3 | 0 | 1 | 0 | 0 | 0 | 0 | –
CN(C)CCCOc1nn(Cc2ccccc2)c2ccccc12 [BENZYDAMINE] | 0 | 0 | 0 | 0 | 0 | 0 | 0 | 0 | 0 | 0 | 0 | 0 | 0 | 0 | –
CCCCN1CCCCC1C(=O)Nc1c(C)cccc1C (configuration not stated) [BUPIVACAINE] | 0 | 0 | 0 | 0 | 1 | 0 | 0 | 1 | 0 | 0 | 0 | 0 | 0 | 0 | –
COC(=O)C1=C(C)NC(C)=C(C(=O)OC)C1c1ccccc1[N+](=O)[O-] [NIFEDIPINE] | 1 | 0 | 0 | 0 | 0 | 0 | 0 | 2 | 0 | 1 | 0 | 0 | 0 | 0 | –
CCC[C@@H]1C[C@@H](C(=O)N[C@@H]([C@H]2O[C@H](SC)[C@H](O)[C@@H](O)[C@H]2O)[C@@H](C)O)N(C)C1 [LINCOMYCIN] | 0 | 1 | 0 | 0 | 0 | 0 | 0 | 2 | 0 | 1 | 0 | 0 | 0 | 0 | –
CN1CCN(CCCN2c3ccccc3Sc3ccc(C(F)(F)F)cc32)CC1 [TRIFLUOPERAZINE] | 0 | 0 | 0 | 0 | 0 | 0 | 0 | 1 | 0 | 1 | 0 | 0 | 0 | 0 | –
UROFOLLITROPIN | 0 | 0 | 0 | 0 | 0 | 0 | 0 | 0 | 0 | 0 | 0 | 0 | 0 | 0 | –
NNCCc1ccccc1 [PHENELZINE] | – | – | – | – | – | – | – | – | – | – | – | – | – | – | HepSE_hepatitis ([1]; Liver): 0; HepSE_liver function tests abnormal ([2]; Liver): 0; HepSE_cholelithiasis ([3]; Liver): 0; HepSE_elevated liver function tests ([4]; Liver): 0; HepSE_liver disease ([5]; Liver): 0; HepSE_liver fatty ([6]; Liver): 0; HepSE_cirrhosis ([7]; Liver): 0; HepSE_Combined Scores ([8]; Liver): 1; HepSE_bilirubinemia ([9]; Liver): 0; HepSE_jaundice ([10]; Liver): 1; HepSE_cholecystitis ([11]; Liver): 0; HepSE_hepatic necrosis ([12]; Liver): 0; HepSE_hepatomegaly ([13]; Liver): 0; HepSE_hepatic failure ([14]; Liver): 0
CCN1CCN(C(=O)N[C@@H](C(=O)N[C@@H]2C(=O)N3C(C(=O)O)=C(CSc4nnnn4C)CS[C@H]23)c2ccc(O)cc2)C(=O)C1=O [CEFOPERAZONE] | 1 | 0 | 0 | 0 | 1 | 0 | 0 | 2 | 0 | 0 | 0 | 0 | 0 | 0 | –
